These results are taken from ChEMBL document CHEMBL1201862, “PubChem BioAssay data set” (2004).

Calls of active or inactive are those of the source. Unless noted, the calls are words filed in the database; no cut-off is given here. Some results are limits rather than exact numbers.

For assay [1], the target named is UDP-galactopyranose mutase (Mycobacterium tuberculosis, UniProt P9WIQ1). The assay can be described thus: Inhibitors of Mycobacterium tuberculosis UDP-galactopyranose mutase (UGM) enzyme Measured in Biochemical System Using Plate Reader - 2105-02_Inhibitor_Dose_CherryPick_Activity. [Related pubchem assays (depositor defined):AID504439].
The target of assay [2] is T1, Tyrosine-protein phosphatase non-receptor type 22 (Homo sapiens, UniProt Q9Y2R2). In kind it is functional.
The target in assay [3] is T1, Tyrosine-protein phosphatase non-receptor type 22. In kind it is functional. The source holds these as a separate data set.
The target in assay [4] is T2, Tyrosine-protein phosphatase non-receptor type 7 (Homo sapiens, UniProt P35236).
T2 sequence (P35236 whole entry): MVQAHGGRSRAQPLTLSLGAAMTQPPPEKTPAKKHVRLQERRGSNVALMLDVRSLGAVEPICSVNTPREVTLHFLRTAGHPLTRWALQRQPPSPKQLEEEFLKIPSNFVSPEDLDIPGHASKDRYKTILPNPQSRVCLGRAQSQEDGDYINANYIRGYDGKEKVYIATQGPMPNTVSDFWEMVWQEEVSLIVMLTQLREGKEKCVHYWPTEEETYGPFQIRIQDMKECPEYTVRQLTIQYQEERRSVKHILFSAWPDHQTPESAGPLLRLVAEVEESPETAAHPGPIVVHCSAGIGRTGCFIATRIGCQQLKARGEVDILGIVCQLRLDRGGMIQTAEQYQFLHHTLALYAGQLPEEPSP
In kind it is functional.

In assay [5] the target is T3, Heat shock factor protein 1 (Mus musculus, UniProt P38532).
T3 sequence (P38532 whole entry): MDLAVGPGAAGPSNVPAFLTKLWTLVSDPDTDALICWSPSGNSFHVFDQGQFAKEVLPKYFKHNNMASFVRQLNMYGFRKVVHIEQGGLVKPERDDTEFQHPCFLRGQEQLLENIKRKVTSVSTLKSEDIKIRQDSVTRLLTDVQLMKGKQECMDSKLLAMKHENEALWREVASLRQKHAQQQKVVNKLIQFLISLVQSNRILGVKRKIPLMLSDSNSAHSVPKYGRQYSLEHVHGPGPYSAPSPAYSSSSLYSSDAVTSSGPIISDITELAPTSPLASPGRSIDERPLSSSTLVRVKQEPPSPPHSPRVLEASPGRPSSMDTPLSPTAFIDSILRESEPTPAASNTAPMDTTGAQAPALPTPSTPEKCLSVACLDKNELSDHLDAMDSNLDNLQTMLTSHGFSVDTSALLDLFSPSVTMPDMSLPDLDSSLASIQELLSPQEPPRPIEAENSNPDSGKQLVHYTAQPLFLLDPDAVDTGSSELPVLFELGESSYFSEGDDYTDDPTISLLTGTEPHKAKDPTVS
In words: HSF1 potentiators in luciferase reporter cells, confirmation, cell-based, NIH3T3, luminescence, dose retest (AID 435004).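 Further: stress induced by proteasome inhibitor MG132 added 30 min after compound; luciferase reporter driven by HSF1 response element in NIH3T3 cells; actives raise luminescence as potentiators of the MG132 stress response.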 In kind it is functional. In general terms: In a reporter assay the amount or activity of a reporter protein is the signal.

Assay [6] concerns HEK293. The assay can be described thus: NOD1 signaling inhibitors, primary screen, cell-based, luminescence, uHTS (AID 1578). The following applies: Homo sapiens. In kind it is functional.
The subject of assay [7] is HEK293. In words: cells. In kind it is functional, cell-based. To be noted: Homo sapiens.
The target of assay [8] is Nucleotide-binding oligomerization domain-containing protein 2 (Homo sapiens, UniProt Q9HC29). In words: NOD2 signaling inhibitors, cell-based, luminescence, uHTS, HEK293 (AID 1566). It counts as functional.
Assay [9] concerns HEK293. The assay can be described thus: cells. It counts as functional, cell-based. To be noted: Homo sapiens. This is another data set of the same source.
Assay [10] has as its target Glycogen synthase kinase-3 beta (Homo sapiens, UniProt P49841). The assay can be described thus: Inhibition of Human GSK-3 beta Activity Measured in Biochemical System Using Microfluidics - 2063-05_Inhibitor_Dose_DryPowder_Activity. [Related pubchem assays (depositor defined):AID2709].
For assay [11], the system named is HEK293. The assay can be described thus: NOD2 signaling inhibitors in MDP-stimulated cells, cell-based, uHTS, luminescence (AID 2001). It counts as functional. To be noted: Homo sapiens.
Assay [12] deals with HEK293. The assay can be described thus: cells. It counts as functional, cell-based. The following applies: Homo sapiens. The source holds these as a separate data set.
Assay [13] relates to A-375. The assay can be described thus: MITF: Counter assay: A375 proliferation Measured in Cell-Based System Using Plate Reader - 2084-03_Inhibitor_Dose_DryPowder_Activity. [Related pubchem assays (depositor defined):AID488944]. It counts as functional. To be noted: Homo sapiens.
For assay [14], the system named is A-375. The assay can be described thus: A375 melanoma cell viability reduction, dose response, counter-screen for MITF modulator project, cherry-pick samples, set 2 (AID 540335). It counts as functional, cell-based. The following applies: Homo sapiens. A general note: Counterscreens check selectivity or assay interference.
Assay [15] in a line: Fluorescence polarization-based biochemical high throughput dose response assay for activators of the Protein Kinase A-R2B (PKA-R2B) complex. [Related pubchem assays (depositor defined):AID504700, AID504704, AID504796, AID504797]. A general note: In fluorescence polarisation assays a small probe gives low polarisation when free and higher when bound to something large.
Assay [16] in a line: Fluorescence polarization-based biochemical high throughput dose response assay for activators of the Protein Kinase A-R1A (PKA-R1A) complex. [Related pubchem assays (depositor defined):AID504704, AID504707, AID504799, AID504800].
A short description of assay [17]: blockers of SFLLRN-triggered platelet ATP secretion – cell-based, human platelets, luminescence, dry powder, dose response (AID 493100). It counts as functional.
Assay [18] can be described thus: Luminescence Cell-Based Dose Response Follow up to Identify Inhibitors of Platelet Dense Granule Release. [Related pubchem assays (depositor defined):AID1663, AID1678, AID1889, AID2519]. In kind it is functional.
Assay [19] has as its target Lysine-specific demethylase 4C (Homo sapiens, UniProt Q9H3R0). In words: GASC-1 (JMJD2C) histone demethylase inhibitors, dose response, biochemical, DELFIA europium, cherry-picked samples (AID 488835). It counts as functional.
In assay [20] the target is Lysine-specific demethylase 4A (Homo sapiens, UniProt O75164). In words: JMJD2A histone demethylase inhibitors, dose response, selectivity assay for GASC-1 inhibitor project, biochemical, DELFIA europium, cherry-picked samples (AID 488840).
The target in the next assay is Trypsin (Sus scrofa, UniProt P00761). In words: porcine trypsin inhibitors, dose response, selectivity assay for Rce1 protease inhibitor project, biochemical, quenched peptide fluorescence, cherry-pick (AID 488789).
The target of a further assay is CAAX prenyl protease 1 (Saccharomyces cerevisiae S288c, UniProt P47154). The assay can be described thus: Ste24 protease inhibitors, dose response, biochemical, S. cerevisiae, plate reader, cherry-pick (AID 488815).
The next assay concerns the target T4, CAAX prenyl protease 2 (Saccharomyces cerevisiae S288c, UniProt Q03530).
T4 sequence (Q03530 whole entry): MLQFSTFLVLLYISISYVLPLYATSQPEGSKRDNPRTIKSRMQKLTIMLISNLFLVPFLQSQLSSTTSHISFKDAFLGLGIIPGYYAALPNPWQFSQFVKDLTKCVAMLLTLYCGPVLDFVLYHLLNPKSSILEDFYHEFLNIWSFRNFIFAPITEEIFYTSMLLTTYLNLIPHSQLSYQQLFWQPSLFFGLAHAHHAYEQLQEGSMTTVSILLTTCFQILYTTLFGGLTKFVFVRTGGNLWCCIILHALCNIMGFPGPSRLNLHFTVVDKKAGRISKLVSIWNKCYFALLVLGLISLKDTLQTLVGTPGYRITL
In kind it is biochemical.

The test system of the next assay is Candida albicans. The assay can be described thus: single-agent growth inhibition of C. albicans, dose response, counter-screen for antifungal drug resistance project, C. albicans CaCi-2, dry powder (AID 488802). In kind it is functional, organism-based.
The next assay has as its system NIH3T3. The assay can be described thus: cytotoxicity in NIH-3T3 fibroblasts, dose response, cytotoxicity control for antifungal drug resistance project, cell-based, Alamar Blue, fluconazole, dry powder (AID 488809). It counts as functional. The following applies: Mus musculus.

T1 sequence (Q9Y2R2 whole entry): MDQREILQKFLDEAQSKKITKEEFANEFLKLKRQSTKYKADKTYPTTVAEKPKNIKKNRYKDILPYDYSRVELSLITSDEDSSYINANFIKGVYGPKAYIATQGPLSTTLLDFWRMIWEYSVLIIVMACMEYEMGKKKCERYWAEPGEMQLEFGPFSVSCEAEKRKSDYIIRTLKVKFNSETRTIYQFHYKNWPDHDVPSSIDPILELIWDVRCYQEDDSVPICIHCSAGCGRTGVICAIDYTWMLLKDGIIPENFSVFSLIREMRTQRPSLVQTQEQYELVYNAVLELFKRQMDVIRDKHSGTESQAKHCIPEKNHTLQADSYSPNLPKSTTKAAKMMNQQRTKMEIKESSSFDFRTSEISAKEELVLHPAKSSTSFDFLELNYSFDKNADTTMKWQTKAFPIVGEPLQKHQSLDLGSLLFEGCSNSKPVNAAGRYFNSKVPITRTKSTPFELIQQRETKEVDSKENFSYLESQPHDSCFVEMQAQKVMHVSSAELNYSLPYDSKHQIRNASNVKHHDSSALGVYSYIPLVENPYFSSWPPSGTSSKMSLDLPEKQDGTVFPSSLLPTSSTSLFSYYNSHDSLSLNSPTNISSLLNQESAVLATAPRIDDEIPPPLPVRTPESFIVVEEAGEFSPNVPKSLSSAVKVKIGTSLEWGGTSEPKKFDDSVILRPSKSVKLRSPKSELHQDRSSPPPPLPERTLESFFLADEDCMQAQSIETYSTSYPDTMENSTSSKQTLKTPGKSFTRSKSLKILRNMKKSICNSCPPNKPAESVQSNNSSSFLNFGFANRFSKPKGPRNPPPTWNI
Trypsin, sequence (P00761 whole entry): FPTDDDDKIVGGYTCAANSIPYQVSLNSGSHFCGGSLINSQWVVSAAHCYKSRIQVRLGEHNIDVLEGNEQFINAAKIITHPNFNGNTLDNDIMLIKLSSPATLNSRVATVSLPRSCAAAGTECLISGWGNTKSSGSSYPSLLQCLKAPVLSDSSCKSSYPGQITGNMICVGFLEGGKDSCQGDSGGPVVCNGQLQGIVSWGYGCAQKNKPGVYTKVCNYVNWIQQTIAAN
Glycogen synthase kinase-3 beta, sequence (P49841 whole entry): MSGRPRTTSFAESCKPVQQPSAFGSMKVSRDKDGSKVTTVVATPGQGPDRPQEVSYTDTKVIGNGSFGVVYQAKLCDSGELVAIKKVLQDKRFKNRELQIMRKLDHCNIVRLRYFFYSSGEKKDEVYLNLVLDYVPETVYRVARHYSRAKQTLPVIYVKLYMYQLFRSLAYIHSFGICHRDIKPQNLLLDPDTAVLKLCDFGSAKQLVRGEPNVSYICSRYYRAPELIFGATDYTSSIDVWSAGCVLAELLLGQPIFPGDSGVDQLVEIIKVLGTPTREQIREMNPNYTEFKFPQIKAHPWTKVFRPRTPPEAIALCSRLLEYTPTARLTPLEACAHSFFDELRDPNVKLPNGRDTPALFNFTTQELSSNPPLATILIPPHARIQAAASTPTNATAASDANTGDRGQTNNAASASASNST
Nucleotide-binding oligomerization domain-containing protein 2, sequence (Q9HC29 whole entry, the tested form may be a part): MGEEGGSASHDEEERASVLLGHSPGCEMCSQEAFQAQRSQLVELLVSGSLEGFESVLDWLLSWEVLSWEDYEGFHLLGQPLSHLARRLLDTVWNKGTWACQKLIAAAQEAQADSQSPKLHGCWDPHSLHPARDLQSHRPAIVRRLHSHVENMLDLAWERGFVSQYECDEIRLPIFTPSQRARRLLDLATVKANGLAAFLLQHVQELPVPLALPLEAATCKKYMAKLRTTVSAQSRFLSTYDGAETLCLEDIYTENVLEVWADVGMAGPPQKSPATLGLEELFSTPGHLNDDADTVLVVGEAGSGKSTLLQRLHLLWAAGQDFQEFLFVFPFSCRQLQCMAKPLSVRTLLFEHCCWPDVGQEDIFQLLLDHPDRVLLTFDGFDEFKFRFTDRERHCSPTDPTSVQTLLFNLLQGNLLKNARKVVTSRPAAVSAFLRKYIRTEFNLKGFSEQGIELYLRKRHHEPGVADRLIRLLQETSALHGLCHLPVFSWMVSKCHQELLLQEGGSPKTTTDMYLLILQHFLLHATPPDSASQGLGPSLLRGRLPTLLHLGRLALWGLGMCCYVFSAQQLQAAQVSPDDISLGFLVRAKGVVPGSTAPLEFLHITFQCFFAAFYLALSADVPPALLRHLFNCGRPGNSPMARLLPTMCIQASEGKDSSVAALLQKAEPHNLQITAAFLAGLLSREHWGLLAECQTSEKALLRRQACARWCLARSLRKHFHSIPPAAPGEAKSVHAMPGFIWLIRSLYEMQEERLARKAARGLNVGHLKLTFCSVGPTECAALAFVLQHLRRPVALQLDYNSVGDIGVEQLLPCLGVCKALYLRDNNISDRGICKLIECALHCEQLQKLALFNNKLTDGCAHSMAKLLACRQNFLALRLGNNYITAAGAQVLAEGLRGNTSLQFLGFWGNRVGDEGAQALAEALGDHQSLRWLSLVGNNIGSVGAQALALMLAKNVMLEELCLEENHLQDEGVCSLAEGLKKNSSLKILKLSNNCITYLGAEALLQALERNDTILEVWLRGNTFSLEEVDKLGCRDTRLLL
Lysine-specific demethylase 4A, sequence (O75164 whole entry): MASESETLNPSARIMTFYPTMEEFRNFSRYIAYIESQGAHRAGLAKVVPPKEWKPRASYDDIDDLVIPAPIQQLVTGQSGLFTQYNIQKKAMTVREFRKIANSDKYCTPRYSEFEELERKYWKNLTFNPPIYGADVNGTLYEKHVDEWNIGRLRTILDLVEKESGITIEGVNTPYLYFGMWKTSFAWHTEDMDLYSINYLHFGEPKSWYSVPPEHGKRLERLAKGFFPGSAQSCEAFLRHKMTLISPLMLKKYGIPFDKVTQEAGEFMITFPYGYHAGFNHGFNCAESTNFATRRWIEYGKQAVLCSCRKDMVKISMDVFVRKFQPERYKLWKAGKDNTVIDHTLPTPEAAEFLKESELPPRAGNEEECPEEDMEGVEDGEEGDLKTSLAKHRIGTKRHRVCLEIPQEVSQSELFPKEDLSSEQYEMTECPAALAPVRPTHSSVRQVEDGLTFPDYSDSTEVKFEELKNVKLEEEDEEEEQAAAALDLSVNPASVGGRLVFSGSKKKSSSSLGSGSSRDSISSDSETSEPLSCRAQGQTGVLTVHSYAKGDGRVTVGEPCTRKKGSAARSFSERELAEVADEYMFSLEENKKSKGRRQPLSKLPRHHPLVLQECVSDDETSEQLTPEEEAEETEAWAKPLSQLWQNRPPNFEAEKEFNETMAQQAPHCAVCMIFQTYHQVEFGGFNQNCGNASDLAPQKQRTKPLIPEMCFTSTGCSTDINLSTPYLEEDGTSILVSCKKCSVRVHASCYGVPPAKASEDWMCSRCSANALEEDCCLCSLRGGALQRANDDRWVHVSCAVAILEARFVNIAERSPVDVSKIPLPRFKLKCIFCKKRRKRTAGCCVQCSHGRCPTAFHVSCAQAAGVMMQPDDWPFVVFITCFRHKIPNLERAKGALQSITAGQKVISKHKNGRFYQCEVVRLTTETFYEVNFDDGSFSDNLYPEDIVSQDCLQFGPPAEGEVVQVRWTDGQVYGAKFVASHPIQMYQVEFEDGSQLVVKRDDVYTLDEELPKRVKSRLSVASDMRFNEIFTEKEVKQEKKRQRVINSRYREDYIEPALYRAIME
Lysine-specific demethylase 4C, sequence (Q9H3R0 whole entry): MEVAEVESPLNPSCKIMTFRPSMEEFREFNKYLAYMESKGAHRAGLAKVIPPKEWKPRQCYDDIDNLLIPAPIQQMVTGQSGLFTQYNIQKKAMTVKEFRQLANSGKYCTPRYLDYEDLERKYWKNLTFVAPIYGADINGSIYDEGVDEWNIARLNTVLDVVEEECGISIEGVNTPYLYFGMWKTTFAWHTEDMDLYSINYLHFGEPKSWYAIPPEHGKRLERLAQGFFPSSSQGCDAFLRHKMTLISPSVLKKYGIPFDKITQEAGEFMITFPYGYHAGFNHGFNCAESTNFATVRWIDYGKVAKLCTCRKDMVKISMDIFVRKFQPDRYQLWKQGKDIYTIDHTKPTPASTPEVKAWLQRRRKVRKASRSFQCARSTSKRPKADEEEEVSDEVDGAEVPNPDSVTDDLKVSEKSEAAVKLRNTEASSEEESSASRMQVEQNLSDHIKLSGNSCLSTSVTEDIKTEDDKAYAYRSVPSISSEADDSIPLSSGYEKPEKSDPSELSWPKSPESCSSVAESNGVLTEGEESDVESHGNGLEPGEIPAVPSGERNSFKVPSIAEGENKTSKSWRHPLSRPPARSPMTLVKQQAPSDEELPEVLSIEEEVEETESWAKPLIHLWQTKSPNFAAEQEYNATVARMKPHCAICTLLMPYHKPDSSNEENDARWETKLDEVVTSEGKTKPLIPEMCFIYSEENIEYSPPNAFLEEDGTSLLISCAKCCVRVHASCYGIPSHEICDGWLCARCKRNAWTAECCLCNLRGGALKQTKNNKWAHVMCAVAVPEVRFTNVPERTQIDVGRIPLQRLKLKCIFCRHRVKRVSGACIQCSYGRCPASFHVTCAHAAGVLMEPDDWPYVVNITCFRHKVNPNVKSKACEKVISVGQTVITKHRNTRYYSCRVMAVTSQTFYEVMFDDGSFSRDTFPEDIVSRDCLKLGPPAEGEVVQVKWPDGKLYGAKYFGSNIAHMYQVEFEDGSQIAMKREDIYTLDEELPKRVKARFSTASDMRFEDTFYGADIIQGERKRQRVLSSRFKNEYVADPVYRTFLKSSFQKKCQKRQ
UDP-galactopyranose mutase, sequence (P9WIQ1 whole entry): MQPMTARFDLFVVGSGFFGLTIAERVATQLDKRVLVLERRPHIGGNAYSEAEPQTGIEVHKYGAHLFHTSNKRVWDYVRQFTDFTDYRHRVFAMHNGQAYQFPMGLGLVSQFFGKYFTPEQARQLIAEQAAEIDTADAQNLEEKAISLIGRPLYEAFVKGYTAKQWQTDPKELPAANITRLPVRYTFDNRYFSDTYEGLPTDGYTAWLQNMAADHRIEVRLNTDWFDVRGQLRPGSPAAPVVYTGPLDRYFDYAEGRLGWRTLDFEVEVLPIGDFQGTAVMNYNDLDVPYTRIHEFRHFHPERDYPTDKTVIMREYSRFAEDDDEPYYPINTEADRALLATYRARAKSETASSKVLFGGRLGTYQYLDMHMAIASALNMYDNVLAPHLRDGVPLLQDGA

Take `CCCCCCN1C=CC=C/C1=C\C=C(C#N)C#N`: the AC50 (usually the midpoint of the concentration-response curve, whichever way the signal moves) in assay [1] was 44.1 µM (active).
Regarding `O=C(CC1C(=O)N(Cc2ccccc2)C(=S)N1CCN1CCOCC1)Nc1ccc(F)cc1` (stereo not given), the IC50 in assay [2], in assay [3] and in assay [4] was > 79.4 µM (inactive) each time. In addition, the EC50 (as a rule, the concentration giving half of the maximal effect) in assay [5] was > 260 µM (inactive).
On to `Cc1ccc(-n2c(C)c([N+](=O)[O-])c3ccc(O)cc32)cc1`, for which the EC50 with HEK293 [6] was 16 µM (active); in [8], > 20 µM (inactive). The IC50 – broadly, the point on the concentration scale where inhibition reaches its midpoint – is > 20 µM (inactive) in the assay on HEK293 [7], 1.05 µM (active) in the assay on HEK293 [9], 1.18 µM (active) in the assay on HEK293 [11] and > 20 µM (inactive) in the assay on HEK293 [12]. Moreover, the AC50 in assay [10] was < 68 nM (active).
`c1cc(CSc2nnc(-c3ccc4c(c3)OCO4)o2)ccn1`: the AC50 in the assay on A-375 [13] and in the assay with A-375 [14] was > 35 µM (active) throughout.
For the compound `CCOP1(=O)OCC2OC(n3cnc4c(N)ncnc43)C(O)C2O1` (stereo not given), the EC50 in [15] was 3.75 µM (active); in [16], 2.68 µM (active).
On to `O=C(Nc1ccccc1)c1ccccc1Br`, for which the AC50 in assay [17] is 5.98 µM (active). In assay [18], the EC50 was 1.97 µM (active).
Regarding `CCC(Sc1nc(N)c(NC(=O)c2ccc(Br)o2)c(O)n1)C(=O)O` (stereo not given), the AC50 in assay [19] is 5.06 µM (active); in assay [20] it was 17.5 µM (active).
With `Cc1cc(C)n2cc(CSc3ncccc3C(=O)O)nc2n1`, the AC50 on Trypsin is 10.8 µM (active); on CAAX prenyl protease 1, 6.59 µM (active); at CAAX prenyl protease 2 it was 57.7 µM (active).
For `CCCNC(=O)Cn1nc(-c2ccccc2)c2cc(Cl)ccc21`, the AC50 with Candida albicans was 83.4 µM (active); with NIH3T3 it was 28.9 µM (active).
